Measured values as given in patent publication US20170000133A1, “BENZOXABOROLE FUNGICIDES” (SYNGENTA PARTICIPATIONS AG, priority 2013, published 2017).

Key:
[1] = test system: Monographella nivalis (Microdochium nivale); test: Monographella nivalis (Microdochium nivale) / liquid culture (foot rot cereals); type: cell-based; conditions: PDB potato dextrose broth, 24° C., 4-5 days after application, read-out: disease control (inhibition of growth determined photometrically)
Gaeumannomyces graminis = Gaeumannomyces graminis / liquid culture (take-all of cereals); type: cell-based; conditions: PDB potato dextrose broth, 24° C., 4-5 days after application, read-out: disease control (inhibition of growth determined photometrically)
How it was run: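 Growth inhibition measured photometrically 4–5 days post-application, following incubation at 24 °C. Test compound, applied from DMSO at 200 ppm, mixed with fungal mycelial fragments in potato dextrose broth.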

[2] = test system: Glomerella lagenarium (Colletotrichum lagenarium); test: Glomerella lagenarium (Colletotrichum lagenarium) / liquid culture (anthracnose); type: cell-based; conditions: Colletotrichum orbiculare, PDB potato dextrose broth, 24° C., 3-4 days after application, read-out: disease control (inhibition of growth measured photometrically)
Experimental: 11. Glomerella lagenarium (Colletotrichum lagenarium)/Liquid Culture (Anthracnose): Conidia of the fungus from cryogenic storage were directly mixed into nutrient broth (PDB potato dextrose broth). After placing a DMSO solution of test compound into a 96-well microtiter plate at an application rate of 200 ppm, the nutrient broth containing the fungal spores was added. The test plates were incubated at 24° C. and the inhibition of growth was measured photometrically 3-4 days after application.

[3] = test system: Mycosphaerella graminicola (Septoria tritici); test: Mycosphaerella graminicola (Septoria tritici) / liquid culture (Septoria blotch); type: cell-based; conditions: Zymoseptoria tritici, PDB potato dextrose broth, 24° C., 4-5 days after application, read-out: disease control (inhibition of growth determined photometrically)
Experimental: 13. Mycosphaerella graminicola (Septoria tritici)/Liquid Culture (Septoria Blotch): Conidia of the fungus from cryogenic storage were directly mixed into nutrient broth (PDB potato dextrose broth). After placing a DMSO solution of test compound into a 96-well microtiter plate at an application rate of 200 ppm, the nutrient broth containing the fungal spores was added. The test plates were incubated at 24° C. and the inhibition of growth was determined photometrically 4-5 days after application.

Plasmopara viticola = test: whole plant or invertebrate; type: in vivo; conditions: foliar, read-out: disease control
Pythium ultimum = Pythium ultimum / liquid culture (seedling damping off); type: cell-based; conditions: Globisporangium ultimum; 200 ppm; potato dextrose broth, 24° C., 2-3 days after application; read-out: disease control (inhibition of growth determined photometrically)
[4] = test system: Thanatephorus cucumeris (Rhizoctonia solani); test: Thanatephorus cucumeris (Rhizoctonia solani) / liquid culture (foot rot, damping-off); type: cell-based; conditions: PDB potato dextrose broth, 24° C., 3-4 days after application, read-out: disease control (inhibition of growth determined photometrically)
Experimental: 17. Thanatephorus cucumeris (Rhizoctonia solani)/Liquid Culture (Foot Rot, Damping-Off): Mycelia fragments of a newly grown liquid culture of the fungus were directly mixed into nutrient broth (PDB potato dextrose broth). After placing a DMSO solution of the test compounds into a 96-well microtiter plate at an application rate of 200 ppm, the nutrient broth containing the fungal material was added. The test plates were incubated at 24° C. and the inhibition of growth was determined photometrically 3-4 days after application.

[5] = test system: Mycosphaerella arachidis (Cercospora arachidicola); test: Mycosphaerella arachidis (Cercospora arachidicola) / liquid culture (early leaf spot); type: cell-based; conditions: PDB potato dextrose broth, 24° C., 4-5 days after application, read-out: disease control (inhibition of growth determined photometrically)
Experimental: 12. Mycosphaerella arachidis (Cercospora arachidicola)/Liquid Culture (Early Leaf Spot): Conidia of the fungus from cryogenic storage were directly mixed into nutrient broth (PDB potato dextrose broth). After placing a DMSO solution of test compound into a 96-well microtiter plate at an application rate of 200 ppm, the nutrient broth containing the fungal spores was added. The test plates were incubated at 24° C. and the inhibition of growth was determined photometrically 4-5 days after application.

O=C(OCc1ccc(-c2ccccc2)cc1)c1cc2c(cc1Cl)COB2O [Compound 199]
≥ 80%: inhibition at 200 ppm [1] | inhibition at 200 ppm (Gaeumannomyces graminis) | inhibition at 200 ppm [2] | inhibition at 200 ppm [3]

C#CC(CC)OC(=O)c1ccc2c(c1)B(O)OC2 (stereo not drawn) [Compound 327]
≥ 80%: inhibition at 200 ppm (Gaeumannomyces graminis) | inhibition at 200 ppm [2] | pest or weed control at 200 ppm (Plasmopara viticola) | inhibition at 200 ppm (Pythium ultimum) | inhibition at 200 ppm [4]

O=C(OCCC(F)(F)F)c1ccc2c(c1)B(O)OC2 [Compound 369]
≥ 80%: inhibition at 200 ppm [1] | inhibition at 200 ppm (Gaeumannomyces graminis) | inhibition at 200 ppm [2] | inhibition at 200 ppm (Pythium ultimum) | inhibition at 200 ppm [4]

CCCCSCCOC(=O)c1cc2c(cc1Cl)COB2O [Compound 198]
≥ 80%: inhibition at 200 ppm [1] | inhibition at 200 ppm [5] | inhibition at 200 ppm [2] | inhibition at 200 ppm (Pythium ultimum) | inhibition at 200 ppm [4] | inhibition at 200 ppm [3]

O=C(OCCCCc1ccc2ccccc2c1)c1cc2c(cc1Cl)COB2O [Compound 227]
≥ 80%: inhibition at 200 ppm [1] | inhibition at 200 ppm [2] | inhibition at 200 ppm [4] | inhibition at 200 ppm [3]

O=C(OCc1ccc(-c2ccccc2)cc1)c1ccc2c(c1)B(O)OC2 [Compound 325]
≥ 80%: inhibition at 200 ppm [1] | inhibition at 200 ppm [5] | inhibition at 200 ppm (Gaeumannomyces graminis) | inhibition at 200 ppm [2] | inhibition at 200 ppm [3]

C#CC(CC)OC(=O)c1cc2c(cc1F)COB2O (stereo not drawn) [Compound 387]
≥ 80%: inhibition at 200 ppm [1] | inhibition at 200 ppm (Gaeumannomyces graminis) | inhibition at 200 ppm [2] | inhibition at 200 ppm (Pythium ultimum) | inhibition at 200 ppm [4] | inhibition at 200 ppm [3]

O=C(OCc1ccc(-c2ccccc2)cc1)c1cc2c(cc1F)COB2O [Compound 385]
≥ 80%: inhibition at 200 ppm [1] | inhibition at 200 ppm [5] | inhibition at 200 ppm (Gaeumannomyces graminis) | inhibition at 200 ppm [2] | inhibition at 200 ppm [4] | inhibition at 200 ppm [3]

Cn1cc(CCCOC(=O)c2ccc3c(c2)B(O)OC3)cn1 [Compound 345]
≥ 80%: inhibition at 200 ppm [5] | inhibition at 200 ppm (Gaeumannomyces graminis) | inhibition at 200 ppm [2] | pest or weed control at 200 ppm (Plasmopara viticola) | inhibition at 200 ppm (Pythium ultimum) | inhibition at 200 ppm [4]

O=C(OCC(F)F)c1cc2c(cc1F)COB2O [Compound 427]
≥ 80%: inhibition at 200 ppm [1] | inhibition at 200 ppm [2] | inhibition at 200 ppm (Pythium ultimum) | inhibition at 200 ppm [4]

Cn1cc(CCCOC(=O)c2cc3c(cc2F)COB3O)cn1 [Compound 407]
≥ 80%: inhibition at 200 ppm [5] | inhibition at 200 ppm [2] | inhibition at 200 ppm (Pythium ultimum) | inhibition at 200 ppm [4]

CCCCSCCOC(=O)c1cc2c(cc1F)COB2O [Compound 384]
≥ 80%: inhibition at 200 ppm [1] | inhibition at 200 ppm [5] | inhibition at 200 ppm [2] | inhibition at 200 ppm (Pythium ultimum) | inhibition at 200 ppm [4] | inhibition at 200 ppm [3]

C#CCCCOC(=O)c1cc2c(cc1F)COB2O [Compound 395]
≥ 80%: inhibition at 200 ppm [1] | inhibition at 200 ppm [5] | inhibition at 200 ppm (Gaeumannomyces graminis) | inhibition at 200 ppm [2] | pest or weed control at 200 ppm (Plasmopara viticola) | inhibition at 200 ppm (Pythium ultimum) | inhibition at 200 ppm [4]

O=C(OCCCF)c1cc2c(cc1F)COB2O [Compound 390]
≥ 80%: inhibition at 200 ppm [1] | inhibition at 200 ppm (Gaeumannomyces graminis) | inhibition at 200 ppm [2] | pest or weed control at 200 ppm (Plasmopara viticola) | inhibition at 200 ppm (Pythium ultimum) | inhibition at 200 ppm [4]

CC(F)COC(=O)c1cc2c(cc1Cl)COB2O (stereo not drawn) [Compound 209]
≥ 80%: inhibition at 200 ppm [1] | inhibition at 200 ppm (Gaeumannomyces graminis) | inhibition at 200 ppm [2] | inhibition at 200 ppm (Pythium ultimum) | inhibition at 200 ppm [4]

COCCOC(=O)c1cc2c(cc1F)COB2O [Compound 412]
≥ 80%: inhibition at 200 ppm [1] | inhibition at 200 ppm [5] | inhibition at 200 ppm [2] | pest or weed control at 200 ppm (Plasmopara viticola) | inhibition at 200 ppm (Pythium ultimum) | inhibition at 200 ppm [4]

O=C(OCc1ncc(C(F)(F)F)cc1Cl)c1cc2c(cc1F)COB2O [Compound 409]
≥ 80%: inhibition at 200 ppm [1] | inhibition at 200 ppm (Gaeumannomyces graminis) | inhibition at 200 ppm [2] | pest or weed control at 200 ppm (Plasmopara viticola) | inhibition at 200 ppm (Pythium ultimum) | inhibition at 200 ppm [4]

O=C(OCC1CCSCC1)c1cc2c(cc1Cl)COB2O [Compound 196]
≥ 80%: inhibition at 200 ppm [1] | inhibition at 200 ppm (Gaeumannomyces graminis) | inhibition at 200 ppm [2] | pest or weed control at 200 ppm (Plasmopara viticola) | inhibition at 200 ppm (Pythium ultimum) | inhibition at 200 ppm [3]

O=C(OCCC(F)(F)F)c1cc2c(cc1Cl)COB2O [Compound 238]
≥ 80%: inhibition at 200 ppm [1] | inhibition at 200 ppm (Gaeumannomyces graminis) | inhibition at 200 ppm [2] | pest or weed control at 200 ppm (Plasmopara viticola) | inhibition at 200 ppm (Pythium ultimum) | inhibition at 200 ppm [4] | inhibition at 200 ppm [3]

O=C(OCc1ccc(C(F)(F)F)cc1Cl)c1cc2c(cc1F)COB2O [Compound 386]
≥ 80%: inhibition at 200 ppm [1] | inhibition at 200 ppm [5] | inhibition at 200 ppm (Gaeumannomyces graminis) | inhibition at 200 ppm [2] | inhibition at 200 ppm (Pythium ultimum) | inhibition at 200 ppm [4]

C=CC(=O)OCC(C)OC(=O)c1cc2c(cc1Cl)COB2O (stereo not drawn) [Compound 191]
≥ 80%: inhibition at 200 ppm [1] | inhibition at 200 ppm (Gaeumannomyces graminis) | inhibition at 200 ppm [2] | inhibition at 200 ppm [3]

O=C(OCCF)c1ccc2c(c1)B(O)OC2 [Compound 360]
≥ 80%: inhibition at 200 ppm [5] | inhibition at 200 ppm [2] | pest or weed control at 200 ppm (Plasmopara viticola) | inhibition at 200 ppm (Pythium ultimum) | inhibition at 200 ppm [4]

COC(=O)C(OC(=O)c1cc2c(cc1F)COB2O)c1ccccc1 (stereo not drawn) [Compound 411]
≥ 80%: inhibition at 200 ppm [1] | inhibition at 200 ppm (Gaeumannomyces graminis) | inhibition at 200 ppm [2] | pest or weed control at 200 ppm (Plasmopara viticola) | inhibition at 200 ppm (Pythium ultimum) | inhibition at 200 ppm [3]

O=C(OCC(F)(F)Cl)c1cc2c(cc1Cl)COB2O [Compound 192]
≥ 80%: inhibition at 200 ppm [1] | inhibition at 200 ppm (Gaeumannomyces graminis) | inhibition at 200 ppm [2] | pest or weed control at 200 ppm (Plasmopara viticola) | inhibition at 200 ppm (Pythium ultimum) | inhibition at 200 ppm [4] | inhibition at 200 ppm [3]
